Assay: xn = mol fraction of the nth substance listed
Details: 102 kPa, Liquid; for viscosity: Concentric cylinders viscometry; for speed of sound: Frequency=3 MHz, Single path-length method; for mass density: Vibrating tube method

CCCCCCCCCCCCC1CCCCC1 [dodecylcyclohexane] + CCCCCCCCCCCCCCCC
Details	mass density [kg/m3]	speed of sound [m/s]	viscosity [mPa·s]
293.15 K, x1 = 0.2002	783.66	1370.4	4.02
293.15 K, x1 = 0.4001	793.67	1384	4.72
293.15 K, x1 = 0.5001	798.59	1390.6	5.11
293.15 K, x1 = 0.6003	803.47	1396.7	5.49
293.15 K, x1 = 0.8001	812.98	1410.4	6.49
293.15 K, x1 = 1	822.31	1423.3	7.76
303.15 K, x1 = 0.2002	776.77	1333.2	3.17
303.15 K, x1 = 0.4001	786.84	1347	3.66
303.15 K, x1 = 0.5001	791.79	1353.7	3.95
303.15 K, x1 = 0.6003	796.69	1359.9	4.23
303.15 K, x1 = 0.8001	806.26	1373.4	4.93
303.15 K, x1 = 1	815.65	1386.3	5.81
313.15 K, x1 = 0.2002	769.91	1296.9	2.56
313.15 K, x1 = 0.4001	780.03	1310.8	2.92
313.15 K, x1 = 0.5001	785.01	1317.6	3.13
313.15 K, x1 = 0.6003	789.93	1323.8	3.34
313.15 K, x1 = 0.8001	799.57	1337.3	3.85
313.15 K, x1 = 1	809.01	1350.4	4.48
323.15 K, x1 = 0.2002	763.05	1261.2	2.1
323.15 K, x1 = 0.4001	773.23	1275.3	2.38
323.15 K, x1 = 0.5001	778.23	1282.1	2.54
323.15 K, x1 = 0.6003	783.19	1288.5	2.7
323.15 K, x1 = 0.8001	792.89	1302	3.09
323.15 K, x1 = 1	802.37	1315.2	3.55
333.15 K, x1 = 0.2002	756.19	1226.5	1.76
333.15 K, x1 = 0.4001	766.43	1240.6	1.97
333.15 K, x1 = 0.5001	771.46	1247.5	2.1
333.15 K, x1 = 0.6003	776.44	1254.3	2.23
333.15 K, x1 = 0.8001	786.2	1267.8	2.53
333.15 K, x1 = 1	795.74	1281.1	2.88
343.15 K, x1 = 0.2002	749.3	–	1.49
343.15 K, x1 = 0.4001	759.7	–	1.67
343.15 K, x1 = 0.5001	764.7	–	1.77
343.15 K, x1 = 0.6003	769.7	–	1.88
343.15 K, x1 = 0.8001	779.6	–	2.11
343.15 K, x1 = 1	789.1	–	2.39
353.15 K, x1 = 0.2002	742.4	–	1.28
353.15 K, x1 = 0.4001	752.9	–	1.43
353.15 K, x1 = 0.5001	757.9	–	1.51
353.15 K, x1 = 0.6003	763	–	1.6
353.15 K, x1 = 0.8001	772.9	–	1.79
353.15 K, x1 = 1	782.5	–	2.01
363.15 K, x1 = 0.2002	735.6	–	1.14
363.15 K, x1 = 0.4001	746.1	–	1.24
363.15 K, x1 = 0.5001	751.1	–	1.31
363.15 K, x1 = 0.6003	756.2	–	1.38
363.15 K, x1 = 0.8001	766.2	–	1.54
363.15 K, x1 = 1	775.9	–	1.72
373.15 K, x1 = 0.2002	728.7	–	0.978
373.15 K, x1 = 0.4001	739.3	–	1.08
373.15 K, x1 = 0.5001	744.3	–	1.14
373.15 K, x1 = 0.6003	749.4	–	1.21
373.15 K, x1 = 0.8001	759.5	–	1.34
373.15 K, x1 = 1	769.2	–	1.48

CCCCCCCC1CCCCC1 [heptylcyclohexane] + CCCCCCCCCCCCCCCC
Details	mass density [kg/m3]	speed of sound [m/s]	viscosity [mPa·s]
293.15 K, x1 = 0.1997	779.33	1358.9	3.34
293.15 K, x1 = 0.4002	785.92	1362	3.2
293.15 K, x1 = 0.5001	789.55	1363.4	3.13
293.15 K, x1 = 0.6006	793.34	1365.3	3.05
293.15 K, x1 = 0.7998	801.63	1368.8	2.92
293.15 K, x1 = 1	810.99	1374.4	2.8
303.15 K, x1 = 0.1997	772.4	1321.7	2.66
303.15 K, x1 = 0.4002	778.99	1324.4	2.56
303.15 K, x1 = 0.5001	782.6	1326.1	2.51
303.15 K, x1 = 0.6006	786.39	1327.5	2.45
303.15 K, x1 = 0.7998	794.64	1331.3	2.35
303.15 K, x1 = 1	803.96	1336.1	2.26
313.15 K, x1 = 0.1997	765.47	1285.1	2.17
313.15 K, x1 = 0.4002	772.06	1287.5	2.08
313.15 K, x1 = 0.5001	775.66	1289.4	2.05
313.15 K, x1 = 0.6006	779.44	1290.6	2.01
313.15 K, x1 = 0.7998	787.98	1294.3	1.93
313.15 K, x1 = 1	796.93	1298.7	1.86
323.15 K, x1 = 0.1997	758.54	1249.3	1.8
323.15 K, x1 = 0.4002	765.13	1251.5	1.73
323.15 K, x1 = 0.5001	768.71	1253.4	1.71
323.15 K, x1 = 0.6006	772.48	1254.5	1.67
323.15 K, x1 = 0.7998	780.65	1258.1	1.61
323.15 K, x1 = 1	789.89	1262.1	1.56
333.15 K, x1 = 0.1997	751.62	1214.4	1.52
333.15 K, x1 = 0.4002	758.19	1216.7	1.46
333.15 K, x1 = 0.5001	761.75	1218.2	1.45
333.15 K, x1 = 0.6006	765.51	1219.4	1.42
333.15 K, x1 = 0.7998	773.64	1222.8	1.37
333.15 K, x1 = 1	782.83	1226.5	1.33
343.15 K, x1 = 0.1997	744.7	–	1.31
343.15 K, x1 = 0.4002	751.3	–	1.25
343.15 K, x1 = 0.5001	754.8	–	1.25
343.15 K, x1 = 0.6006	758.6	–	1.22
343.15 K, x1 = 0.7998	766.7	–	1.18
343.15 K, x1 = 1	775.8	–	1.15
353.15 K, x1 = 0.1997	737.7	–	1.12
353.15 K, x1 = 0.4002	744.3	–	1.09
353.15 K, x1 = 0.5001	747.8	–	1.07
353.15 K, x1 = 0.6006	751.6	–	1.06
353.15 K, x1 = 0.7998	759.6	–	1.03
353.15 K, x1 = 1	768.7	–	0.993
363.15 K, x1 = 0.1997	730.8	–	1
363.15 K, x1 = 0.4002	737.8	–	0.954
363.15 K, x1 = 0.5001	740.7	–	0.962
363.15 K, x1 = 0.6006	744.5	–	0.932
363.15 K, x1 = 0.7998	752.6	–	0.903
363.15 K, x1 = 1	761.6	–	0.892
373.15 K, x1 = 0.1997	723.7	–	0.866
373.15 K, x1 = 0.4002	730.3	–	0.845
373.15 K, x1 = 0.5001	733.7	–	0.834
373.15 K, x1 = 0.6006	737.5	–	0.827
373.15 K, x1 = 0.7998	745.4	–	0.803
373.15 K, x1 = 1	754.4	–	0.776
